Key:
[1] = target: T1, Atlantic cod estrogen receptor alpha (gmEra) LBD (Gadus morhua, UniProt U5ILH7); assay: Luciferase reporter gene assay, gmEra agonism (estrogenic activity) in transfected COS-7 cells; conditions: for gmEra REP50 (relative potency EC50, EC50-bisphenol A/EC50-bisphenol X): relative to BPA
T1 sequence (U5ILH7 170-455): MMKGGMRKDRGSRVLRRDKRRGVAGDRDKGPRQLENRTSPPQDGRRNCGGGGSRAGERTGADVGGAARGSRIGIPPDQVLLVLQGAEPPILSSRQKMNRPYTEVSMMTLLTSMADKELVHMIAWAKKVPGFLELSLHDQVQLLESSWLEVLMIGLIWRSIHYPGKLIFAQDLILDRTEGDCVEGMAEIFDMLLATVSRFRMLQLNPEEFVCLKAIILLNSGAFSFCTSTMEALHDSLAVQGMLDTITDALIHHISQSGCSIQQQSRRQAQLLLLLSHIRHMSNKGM
Description: (§1) Ligand activation of gmEra and gmAra was studied with a luciferase reporter gene assay in COS-7 cells transiently transfected with the pCMX-GAL4(DBD)-gmEra(LBD) or pCMX-GAL4(DBD)-gmAra(LBD) plasmid by using the TransIT-LT1 reagent (TransIT-LT1 Transfection Reagent, Mirus). Cells were seeded into 96-well plates (5000 cells/well) and incubated for 24 h before cotransfection with the plasmid mixture (100 ng/well). The plasmid mixture contained GAL4-UAS luciferase reporter plasmid (tk-(MH100)x4 luc), the pCMX-GAL4(DBD)-gmEra(LBD) or pCMX-GAL4(DBD)-gmAra(LBD) receptor plasmids (2:1 reporter:receptor plasmid mass ratio), and a plasmid constitutively producing the β-galactosidase enzyme used for normalization of transfection efficiency (pCMV- β-Gal). […] The maximum DMSO/methanol concentrations in the exposure wells were 0.5% (v/v) in DMEM medium without phenol red (Sigma-Aldrich). After exposure, cells were lysed, and luciferase and beta-galactosidase activities were measured as luminescence and absorbance (420 nm) after the addition of luciferin and ONPG substrates, respectively, using an Enspire Multimode plate reader (PerkinElmer, Waltham, Massachusetts, USA).
Luciferase reporter gene assays were established with COS-7 cells transiently producing the LBD of gmEra (Figure S1) for evaluating the estrogenic potential of 12 bisphenols.
COS-7 cells transiently transfected with gmEra-LBD were exposed to EE2 (open circles), BPA (black circles), and 11 different BPA analogs (red squares and as indicated) at increasing concentrations. Responses are presented as mean fold activation in luciferase activity in comparison to solvent-exposed cells ± SEM from three independent experiments with three technical replicates (n = 9). The dose–response curves were created using nonlinear regression and the four parameter logistic fit in Graphpad Prism v.9. For comparison, the dose–response curve of BPA (black line) is indicated together with each individual BP tested (red line). *p < 0.05 versus solvent control by one-way ANOVA and Dunnett’s multiple comparison post hoc test.

[2] = target: T1, Atlantic cod estrogen receptor alpha (gmEra) LBD; assay: Luciferase reporter gene assay, gmEra antagonism (antiestrogenic activity), coexposure with 3 nM EE2; assay type: cell-based; conditions: for antiestrogenic effect on gmEra, result in words: coexposure with EE2 (3 nM, EC20)
Description: as §1
To investigate potential antiestrogenic effects, COS-7 cells transiently expressing gmEra LBD were exposed to the 12 bisphenols in binary mixtures with a fixed concentration of EE2 (3 nM, corresponding to EC20) (Figure 2 and Table 1).
(§2) The dose–response curves were created using nonlinear regression and the four-parameter logistic fit in Graphpad Prism v.9. *p < 0.05 versus solvent control by ANOVA and Dunnett’s multiple comparison post hoc test.

COS-7 cells = assay: Cytotoxicity toward COS-7 cells (resazurin and CFDA-AM assays); conditions: 24 h; for concentration that affected COS-7 cell viability: binary combination with 0.003 μM EE2
Source text: The cytotoxicity of the test compounds toward COS-7 cells was monitored by measuring the metabolic activity and membrane integrity through the conversion of resazurin and 5-carboxyfluorescein diacetate acetoxymethyl ester (CFDA-AM), respectively, as described previously by Pérez-Albaladejo et al.[54] […]
used as a negative control.
Figure S2. Assessing metabolic activity (resazurin) and cell membrane integrity (CFDA-AM) in COS-7 cells after BP exposures. COS-7 cells were exposed to three concentrations of each BP, as well as three concentrations […]
exposed at 37 °C and 5 % CO2 for 24 hours. Cytotoxicity is indicated by a reduction in the fluorescent signal (denoted as % Cell survival) relative to the solvent control (DMSO, dotted line) adjusted to 100 %. A reduction in cell viability exceeding 20 % is generally regarded as cytotoxic (indicated with a red dotted line) (ISO, I. 2009.
10993–5: 2009 Biological evaluation of medical devices—part 5: tests for in vitro cytotoxicity. International Organization for Standardization, Geneva.).
(1 picture or pasted object on this page, not shown here)

[3] = test system: Er-mediated synthesis of Vtg in Atlantic cod PCLS; assay: Vitellogenin ELISA in media of exposed precision-cut liver slices (PCLS); assay type: cell-based, Atlantic cod (Gadus morhua); conditions: 96 h; for concentration at which maximum Vtg levels were observed: 1, 10, 100 μM tested; for Vtg synthesis in PCLS, result in words: 1, 10, 100 μM bisphenols or 0.1, 1, 10 nM EE2, Vtg in media by ELISA
Description: PCLS culturing and exposure assays were performed essentially as described previously,[42],[56] with the modifications described below. Juvenile Atlantic cod were killed by a blow to the head, and the liver was dissected out and placed in a Petri dish containing ice-cold PCLS buffer (122 mM NaCl, 4.8 mM KCl, 1.2 mM MgSO4, 11 mM Na2HPO4, 3.7 mM NaHCO3, […]). The liver was then cut into small tissue blocks (approximately 3 cm long, 2 cm wide, and 1–3 cm high) and kept in ice-cold complete culture medium (L-15 medium supplemented with 10% FBS and 1× antibiotic-antimycotic solution). For slicing, the tissue block was fixed on the specimen plate of a Leica vibrating blade microtome VT1200 (Leica, Wetzlar, Germany) using Loctite Super Glue (Clas Ohlson, Bergen, Norway), and 250 μm thick tissue slices were cut (under ice-cold PCLS buffer) and kept in a Petri dish with ice-cold complete culture medium. Using a sterile razor blade, the tissue slices (2 × 3 cm) were then divided into smaller pieces (approximately 4 × 4 mm) and distributed into a 12-well cell culture plate (Sarstedt, Nümbrecht, Germany), each well containing 6 slices and 2 mL of complete culture medium. The PCLS were preincubated at 10 °C for 2 h before exposure. After preincubation, 1 mL of the medium was removed from each well and replaced by 1 mL of fresh complete culture medium containing 2x the final desired concentration and incubated at 10 °C for 96 h with shaking at 50 rpm. […] At the end of the exposure, slices were collected with tweezers and rinsed briefly in cold PBS. Excess PBS was removed by carefully touching a dry surface of the culture plate with the slice 4 times before measuring the weight in a preweighed cryotube. The slices were then snap-frozen in liquid N2 and stored at −80 °C. The media was also sampled and stored at −80 °C for viability (LDH) assay and vitellogenin ELISA.
Vitellogenin (Vtg) in media collected from exposed PCLS was quantified using the Atlantic Cod Vitellogenin ELISA kit (Biosense Laboratories AS, Bergen, Norway) according to manufacturer’s instructions. Vtg was quantified in 100 μL of undiluted media and normalized to the weight of the liver tissue. Statistical analysis of ELISA data was performed with GraphPad Prism Software version 9 (GraphPad Prism, La Jolla, CA, USA) by using one-way ANOVA followed by Dunnett’s test (for normally distributed data) or Friedman test followed by Dunn’s test (for non-normally distributed data), as described previously for PCLS experiments (Yadetie et al.[42]).
Figure 5 Relative vitellogenin production in Atlantic cod precision-cut liver slices (PCLS) exposed to bisphenols and EE2. PCLS were exposed to 1, 10, and 100 μM bisphenols or 0.1, 1, and 10 nM EE2, for 96 h. EE2 was included as positive control for activation of the gmEra signaling pathway. Levels of induced Vtg in the PCLS media were measured using ELISA (Cod Vitellogenin ELISA kit, Biosense Laboratories AS). The data represents mean ± SEM of fold change (compared to solvent control) of Vtg levels from 4 to 10 fish. n = 8–10 for all bisphenols except for BADGE (n = 4). Asterisks denote significant changes (p < 0.05) compared to solvent control.

[4] = target: T2, Atlantic cod androgen receptor alpha (gmAra) LBD (Gadus morhua, UniProt D5FIC7); assay: Luciferase reporter gene assay, gmAra agonism (androgenic activity) in transfected COS-7 cells
T2 sequence (D5FIC7 409-718): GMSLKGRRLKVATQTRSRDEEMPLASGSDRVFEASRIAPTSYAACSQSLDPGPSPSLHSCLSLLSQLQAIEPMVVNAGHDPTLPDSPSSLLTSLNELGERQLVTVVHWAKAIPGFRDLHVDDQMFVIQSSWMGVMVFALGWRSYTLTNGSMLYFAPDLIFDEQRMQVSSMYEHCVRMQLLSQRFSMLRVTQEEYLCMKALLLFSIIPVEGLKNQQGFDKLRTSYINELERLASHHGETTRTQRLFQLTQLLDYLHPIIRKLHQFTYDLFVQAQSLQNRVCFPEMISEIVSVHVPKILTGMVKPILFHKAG
Description: as §1
Figure 3 Androgenic activity of bisphenols. COS-7 cells were transiently transfected with gmAra LBD and exposed individually to 12 bisphenol analogs at increasing concentrations. […] The dose–response curves were created using nonlinear regression and the four-parameter logistic fit in Graphpad Prism v.9. For comparison, the dose–response curve of BPA (black line) is indicated together with each individual BP tested (red line). *p < 0.05 versus solvent control by one-way ANOVA and Dunnett’s multiple comparison post hoc test.

[5] = target: T2, Atlantic cod androgen receptor alpha (gmAra) LBD; assay: Luciferase reporter gene assay, gmAra antagonism (antiandrogenic activity), coexposure with 5 nM testosterone; assay type: cell-based; conditions: for effect on testosterone-mediated gmAra activity, result in words: BPs 0.003–50 μM with 5 nM testosterone; for IC50: gmAra IC50, in the presence of 5 nM testosterone (EC20)
Description: as §1, §2

[6] = gmEra EC50, four-parameter logistic fit, 24 h exposure
[7] = antiandrogenic reporter assay conditions (with testosterone), highest concentration used

Oc1ccc(C(c2ccc(O)cc2)(C(F)(F)F)C(F)(F)F)cc1 [BPAF]
EC50 [1, 6]: 230 nM
antiestrogenic effect on gmEra, result in words [2]: no antiestrogenic effects
cytotoxic concentration in COS-7 cells (COS-7 cells; African green monkey): 50 µM
concentration at which maximum Vtg levels were observed [3]: 10 µM

CCC(C)(c1ccc(O)cc1)c1ccc(O)cc1 [BPB]
EC50 [1, 6]: 1600 nM
antiestrogenic effect on gmEra, result in words [2]: no antiestrogenic effects

Oc1ccc(C(=C(Cl)Cl)c2ccc(O)cc2)cc1 [BPC2]
EC50 [1, 6]: 200 nM
IC50 [2]: 60 nM

CC(c1ccc(O)cc1)c1ccc(O)cc1 [BPE]
EC50 [1, 6]: 11700 nM
gmEra REP50 (relative potency EC50, EC50-bisphenol A/EC50-bisphenol X) [1]: 0.2
antiestrogenic effect on gmEra, result in words [2]: no antiestrogenic effects
maximal fold induction ([4]; COS-7, monkey, 24 h, read-out: gmAra Emax): 1.2
effect on testosterone-mediated gmAra activity, result in words [5]: significantly decrease the testosterone-mediated Ara-activity
IC50 [5]: 460 nM
Vtg synthesis in PCLS, result in words [3]: induced the highest Vtg-levels ex vivo

Oc1ccc(Cc2ccc(O)cc2)cc1 [BPF]
EC50 [1, 6]: 3800 nM
antiestrogenic effect on gmEra, result in words [2]: no antiestrogenic effects
Vtg synthesis in PCLS, result in words [3]: induced the highest Vtg-levels ex vivo

CC(C)c1cc(C(C)(C)c2ccc(O)c(C(C)C)c2)ccc1O [BPG]
effect on testosterone-mediated gmAra activity, result in words [5]: significantly decrease the testosterone-mediated Ara-activity
IC50 [5]: 200 nM
cytotoxic concentration in COS-7 cells (COS-7 cells; [7]): 50 µM
concentration that affected COS-7 cell viability (COS-7 cells; highest concentration used): 50 µM
Vtg synthesis in PCLS, result in words [3]: able to induce Vtg synthesis in PCLS

O=S(=O)(c1ccc(O)cc1)c1ccc(O)cc1 [BPS]
EC50 [1, 6]: 83300 nM
antiestrogenic effect on gmEra, result in words [2]: no antiestrogenic effects

CC1CC(C)(C)CC(c2ccc(O)cc2)(c2ccc(O)cc2)C1 (stereo not drawn) [BPTMC]
effect on testosterone-mediated gmAra activity, result in words [5]: significantly decrease the testosterone-mediated Ara-activity
IC50 [5]: 1750 nM
cytotoxic concentration in COS-7 cells (COS-7 cells; [7]): 50 µM
concentration that affected COS-7 cell viability (COS-7 cells; highest concentration used): 50 µM
concentration at which maximum Vtg levels were observed [3]: 10 µM

Oc1ccc(C2(c3ccc(O)cc3)CCCCC2)cc1 [BPZ]
effect on testosterone-mediated gmAra activity, result in words [5]: significantly decrease the testosterone-mediated Ara-activity
IC50 [5]: 880 nM
effect on testosterone-mediated gmAra activity at lower concentrations, result in words ([5]; lower concentrations used (3–80 nM) with 5 nM testosterone): significant increases in gmAr activity
cytotoxic concentration in COS-7 cells (COS-7 cells; [7]): 50 µM
concentration that affected COS-7 cell viability (COS-7 cells; highest concentration used): 50 µM
Vtg synthesis in PCLS, result in words [3]: only moderate and not statistically significant
concentration at which maximum Vtg levels were observed [3]: 10 µM

C#C[C@]1(O)CC[C@H]2[C@@H]3CCc4cc(O)ccc4[C@H]3CC[C@@]21C [EE2, 17α-Ethynylestradiol, reference compound]
maximal fold induction ([1]; COS-7, monkey, 24 h, read-out: gmEra Emax): 80
potency toward gmEra relative to BPA (times more potent) ([1]; EE2 compared with BPA): ~10^3
EC50 [1, 6]: 7 nM
EC50 ([1]; gmEra EC50, value given in text): 6.8 nM
gmEra REP50 (relative potency EC50, EC50-bisphenol A/EC50-bisphenol X) [1]: 271
Vtg synthesis in PCLS, result in words [3]: increased Vtg-levels in the media in a dose-dependent manner

C[C@]12CC[C@H]3[C@@H](CCC4=CC(=O)CC[C@@]43C)[C@@H]1CC[C@@H]2O [T, testosterone, reference compound]
gmAra Emax ([4]; fold activation in luciferase activity vs solvent control, 24 h exposure, a = plateau not reached): 42.1 fold activation

CC(C)C(=O)Nc1ccc([N+](=O)[O-])c(C(F)(F)F)c1 [flutamide, reference compound]
IC50 [5]: ~710 nM
